According to patent publication US4233299A, “4-Hydroxy-2H-1,2-benzothiazine-3-carboxamide-1,1-dioxides and salts thereof” (priority 1977, dated 1980):
“Also recorded” adds a separate entry of the source. Like-named read-outs stand apart in the source and are kept apart here.

Tests used:
[1] = acute toxicity in the mouse; format: in vivo, male and female Chbb: NMRI (SPF)-mice; settings: in vivo; for selectivity ratio: po, Table V, LD50 / ED50 adjuvant arthritis prim. reaction, read-out: Therapeutic Ratio I/II (converted); for LD50 at 336 h: Table III, oral administration, mouse, deaths within 14 days, limits in parentheses
Method: (§1) The acute toxicity was determined on male and female Chbb: NMRI (SPF)-mice (sex ratio of each dosage group 1:1) having an average body weight of 20 gm. The test compound was administered perorally as a trituration in 1% of methyl cellulose (0.2 ml/10 gm animal) by means of an esophageal sound.
(§2) The calculation of the LD50 -values was effected according to the method of LITCHFIELD and WILCOXON, based on the percentage of animals which died within 14 days after administration of each dose.

[2] = tested on: pain caused by inflammation (yeast edema); assay: activity against the pain caused by inflammation (Randall and Selitto); format: in vivo, male Chbb:THOM-rats; settings: for ED50: po, 1.5 h, read-out: Randall-Selitto ED50
Method: The activity against the pain caused by inflammation was tested according to Randall and Selitto [Arch. Int. Pharmacodyn. 111, 409 (1957] in male Chbb:THOM-rats, having a body weight of 100 to 130 gm. The test compounds were administered perorally 90 minutes after the induction of the yeast edema by means of an esophageal tube. After further 90 minutes the pain threshold was determined in the animals treated with the test compound and in the control animals treated only with the vehicle methyl cellulose, and by using a linear regression analysis an ED50 was calculated with the confidence limits according to FIELLER, the ED50 being the dose which increased the pain threshold by 50%.

[3] = ulcerogenic effect on the stomach of the rat; format: in vivo, male Chbb:THOM-rats; settings: rat, in vivo; for selectivity ratio: po, Table IV, ED50 ulcer / ED50 adjuvant arthritis prim. reaction, read-out: Therapeutic Ratio I/II; for TD50: Table II, daily oral administration for 3 days, limits in parentheses, Litchfield and Wilcoxon, read-out: Ulcerogenic activity in the stomach ED50
Method: (§3) The test was carried out on male Chbb:THOM-rats with an average body weight of 130 gm at the beginning of the study. The animals were fed with a standard diet (Altromin-R) ad libitum. The test compounds were administered perorally as a trituration in 1% methyl cellulose (1 ml/100 gm animal) by means of an esophageal sound once a day on three successive days. Four hours after the last administration the animals were killed. The stomachs were dissected and the mucosa was washed with water for subsequent macroscopic evaluation. […] Therap. 96, 99 (1949)].

stomach of the rat = assay: ulcerogenic effect on the stomach of the rat; format: in vivo, male Chbb:THOM-rats
Method: as §3

adjuvant arthritis = assay: activity against adjuvant arthritis in the rat; format: in vivo, male Chbb:THOM-rats; settings: for ED50: Rattus norvegicus, 504 h; for antiphlogistic activity: in words, compared with compound A
Method: 0.1 ml of a 1% suspension of M. butyricum in viscous paraffin oil was administered by subplantar injection to the right hind paw of male Chbb:THOM-rats having an average body weight of 210 gm at the beginning of the test. […]
Using a linear regression analysis, an ED50 with the confidence limits according to FIELLER [Quart. J. Pharm. Pharmacol. 17, 117 (1944)] was calculated as the dosage which reduces the swelling of the paws by 50% in comparison to the control animals.

mouse = assay: acute toxicity in the mouse; format: in vivo, male and female Chbb: NMRI (SPF)-mice; settings: compared with the other compounds; see Table V
Method: as §1, §2

[4] = Table I, daily oral administration, 21 days, dose per day, left hind paw swelling reduced by 50%, confidence limits according to FIELLER in parentheses, read-out: Activity against the secondary reaction ED50
[5] = Table I, daily oral administration, 21 days, dose per day, right hind paw swelling reduced by 50%, confidence limits according to FIELLER in parentheses, read-out: Activity against the primary reaction ED50

Row | Structure (SMILES) | selectivity ratio [1] | LD50 at 336 h [1] [mg/kg] | selectivity ratio [3] | TD50 [3] [mg/kg] | antiphlogistic activity (adjuvant arthritis) | ED50 (adjuvant arthritis; [4]) [mg/kg] | ED50 (adjuvant arthritis; [5]) [mg/kg] | further results
1 | CN1C(C(=O)Nc2nccs2)=C(O)c2ccccc2S1(=O)=O [C, 4-Hydroxy-2-methyl-N-(2thiazolyl)-2H-1,2-benzothiazine-3-carboxamide-1,1-dioxide] | 12600 | 466 | 1.23 | 0.95 | weaker antiphlogistic activity |  |  | ED50 ([2]; in Rattus norvegicus): 9.2 mg/kg; ulcerogenic effect on the stomach, relative to compound A (stomach of the rat; in words, compared with compound A): two times stronger; ED50 (adjuvant arthritis; po, read-out: Activity against the primary reaction ED50): 0.77 mg/kg; ED50 (adjuvant arthritis; po, read-out: Activity against the secondary reaction ED50): 0.6 mg/kg
2 | Cc1cnc(NC(=O)C2=C(O)c3ccccc3S(=O)(=O)N2C)s1 [Compound A, 4-Hydroxy-2-methyl-N-(5-methyl-2-thiazolyl)-2H-1,2-benzothiazine-3-carboxamide-1,1-dioxide] | 1680 | 470 | 8.25 | 2.31 |  | 0.12 | 0.28 | difference between the antiphlogistically active doses and the toxic doses (mouse): distinctly higher than in the other compounds; ED50 ([2]; Table VI, peroral, rat, dose which increased the pain threshold by 50%): 5.6 mg/kg; effectiveness against the pain caused by inflammation ([2]; rat, compared with compound C): increased effectiveness; therapeutic ratio relative to compound C (stomach of the rat; Table IV ratio, times greater than that of compound C): about 7 times; stomach compatibility (stomach of the rat; in vivo): significantly better; therapeutic ratio relative to compound B (stomach of the rat; times greater than that of compound B): 10 times; effect on the inflammatory primary reactions, relative to compound C (adjuvant arthritis; compared with compound C): three times greater; effect on the specific secondary reactions, relative to compound C (adjuvant arthritis; contralateral paw, compared with compound C): about 5 times
3 | Cc1csc(NC(=O)C2=C(O)c3ccccc3S(=O)(=O)N2C)n1 [Compound B, 4-Hydroxy-2-methyl-N-(4-methyl-2-thiazolyl)-2H-1,2-benzothiazine-3-carboxamide-1,1-dioxide] | 1320 | 488 | 0.84 | 0.31 | does not completely reach the antiphlogistic activity of compound A | 0.21 | 0.37 | therapeutic ratio, in words (stomach of the rat; Table IV ratio, compared with compound C): still smaller than that of compound C; ulcerogenic activity, in words (stomach of the rat; stomach): strong ulcerogenic effect; also recorded: relatively more pronounced than its antiphlogistic activity; ulcerogenic effect on the stomach, relative to compound A (stomach of the rat; times stronger than that of compound A): more than 6 times
